Patent publication US8048928B2, “Therapeutic agent for treating liver disease containing 2-amino-1,3-propanediol derivative as active ingredient, and method for treating liver disease” (Kyorin Pharmaceutical Co., Ltd., priority 2005, dated 2011)
Counter-ions that a name gives are not always drawn.

Tested on: Con A-induced hepatitis model
Assay: Con A-induced hepatitis model: liver-infiltrating cells counted with FACS Calibur
Assay type: in vivo, Male BALB/c mice
Method: Male BALB/c mice, aged 8 to 12 weeks, were purchased from Charles River, Japan. Concanavalin A (referred to as “Con A,” hereinafter) was dissolved in phosphate-buffered saline (PBS). 0.2 ml of this solution was intravenously administered to the animals to deliver 40 mg/kg of Con A. KRP-203 suspended in distilled water was orally administered at a dose of 0.1 mg/10 g body weight 24 hours before the administration of Con A. The animals were sacrificed 24 hours after the administration of Con A and the serum transaminase activity was measured. Also, the liver was perfused with 30 mL 0.1% EDTA-PBS to collect liver infiltrate (Eur. J. Immunol., 17: 37, 1987). To avoid contamination with lymphocytes in the periphery blood, the first 2.5 ml of the collected 0.1% EDTA-PBS was discarded. The collected cells were stained with anti-CD4 antibody, anti-CD8 antibody, anti-CD3 antibody, anti-CD45/B220 antibody, anti-CD11b antibody, anti-Ly-49C antibody and were counted with FACS Calibur.

[1] = KRP-203 1 mg/kg oral 24 h before Con A 40 mg/kg i.v., 24 h after Con A

NC(CO)(CO)CCc1ccc(Sc2cccc(OCc3ccccc3)c2)cc1Cl [KRP-203, 2-amino-2-[4-(3-benzyloxyphenylthio)-2-chlorophenyl]ethyl-1,3-propanediol hydrochloride]
Number of cells that infiltrated the liver: B220^+ [1]: 2.06 ± 0.21 ×10^5
Number of cells that infiltrated the liver: CD3^+ NK− [1]: 2.29 ± 0.53 ×10^5
Number of cells that infiltrated the liver: CD4^+ [1]: 0.93 ± 0.33 ×10^5
Number of cells that infiltrated the liver: CD8^+ [1]: 2.53 ± 0.64 ×10^5
Number of cells that infiltrated the liver: CD11b^+ [1]: 8.47 ± 2.75 ×10^5
Number of cells that infiltrated the liver: NK^+ CD3− [1]: 0.40 ± 0.24 ×10^5
Number of cells that infiltrated the liver: Total cells [1]: 16.3 ± 3.5 ×10^5
Decrease of total number of infiltrated cells in the liver (group receiving KRP-203 (1 mg/kg) vs control): about 50%
